According to PubChem BioAssay (NCI):
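Assay format: 96-well plates, 48-hour exposure. TGI: concentration producing complete growth inhibition.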

These compounds were tested on NCI-H522 lung (assay: growth of human tumour cells (NCI), 48 h).
Work on `COc1cc(/C=C2\CCC(C)(CN(C)C)C2=O)cc(OC)c1OC` (stereo not drawn) yielded a TGI of over 100 µM.
`CC(C)(C)OC(=O)C1=C(O)C(C(=O)OC(C)(C)C)C23CCCCC12C(C(=O)OC(C)(C)C)C(O)=C3C(=O)OC(C)(C)C` (stereo not drawn) was tested, and the TGI was over 100 µM.
With `CC[C@H]1CC(=O)c2c(cc3c(c2O)C(=O)c2ccccc2C3=O)[C@@]1(C#N)C(=O)OC(C)(C)C` the TGI was 6.74 µM.
With `COc1cc(C(=O)Nc2cccc3ccccc23)c(Br)c(OC)c1OC` the TGI was over 100 µM.
For `Cn1c(C2CCCc3c2c2ccccc2n3C)cc2ccccc21` (stereo not drawn), the TGI was 142 µM.

What follows are compounds tested on HOP-92 NSCLC (assay: growth of human tumour cells (NCI), 48 h).
For `COc1cc(/C=C2\CCC(C)(CN(C)C)C2=O)cc(OC)c1OC` (stereo not drawn), the TGI was over 100 µM.
For `CC(C)(C)OC(=O)C1=C(O)C(C(=O)OC(C)(C)C)C23CCCCC12C(C(=O)OC(C)(C)C)C(O)=C3C(=O)OC(C)(C)C` (stereo not drawn), the TGI was over 100 µM.
`CC[C@H]1CC(=O)c2c(cc3c(c2O)C(=O)c2ccccc2C3=O)[C@@]1(C#N)C(=O)OC(C)(C)C` gave a TGI of over 100 µM.
Compound `COc1cc(C(=O)Nc2cccc3ccccc23)c(Br)c(OC)c1OC` has a TGI of over 100 µM.
For `Cn1c(C2CCCc3c2c2ccccc2n3C)cc2ccccc21` (stereo not drawn), the TGI was 299 µM.

These compounds were tested on K-562 leukemia (assay: growth of human tumour cells (NCI), 48 h).
`COc1cc(/C=C2\CCC(C)(CN(C)C)C2=O)cc(OC)c1OC` (stereo not drawn) gave a TGI of over 100 µM.
Compound `CC(C)(C)OC(=O)C1=C(O)C(C(=O)OC(C)(C)C)C23CCCCC12C(C(=O)OC(C)(C)C)C(O)=C3C(=O)OC(C)(C)C` (stereo not drawn) has a TGI of over 100 µM.
With `COc1cc(C(=O)Nc2cccc3ccccc23)c(Br)c(OC)c1OC` the TGI was over 100 µM.
Compound `Cn1c(C2CCCc3c2c2ccccc2n3C)cc2ccccc21` (stereo not drawn) has a TGI of over 318 µM.

The compounds below were run on NCI-H23 lung (assay: growth of human tumour cells (NCI), 48 h).
Work on `COc1cc(/C=C2\CCC(C)(CN(C)C)C2=O)cc(OC)c1OC` (stereo not drawn) yielded a TGI of over 100 µM.
For `CC(C)(C)OC(=O)C1=C(O)C(C(=O)OC(C)(C)C)C23CCCCC12C(C(=O)OC(C)(C)C)C(O)=C3C(=O)OC(C)(C)C` (stereo not drawn), the TGI was over 100 µM.
`CC[C@H]1CC(=O)c2c(cc3c(c2O)C(=O)c2ccccc2C3=O)[C@@]1(C#N)C(=O)OC(C)(C)C` gave a TGI of 11.2 µM.
`COc1cc(C(=O)Nc2cccc3ccccc23)c(Br)c(OC)c1OC` was tested, and the TGI was over 100 µM.
Compound `Cn1c(C2CCCc3c2c2ccccc2n3C)cc2ccccc21` (stereo not drawn) has a TGI of over 318 µM.

The compounds below were run on SW-620 colon (assay: growth of human tumour cells (NCI), 48 h).
`COc1cc(/C=C2\CCC(C)(CN(C)C)C2=O)cc(OC)c1OC` (stereo not drawn) was tested, and the TGI was over 100 µM.
With `CC(C)(C)OC(=O)C1=C(O)C(C(=O)OC(C)(C)C)C23CCCCC12C(C(=O)OC(C)(C)C)C(O)=C3C(=O)OC(C)(C)C` (stereo not drawn) the TGI was over 100 µM.
Compound `CC[C@H]1CC(=O)c2c(cc3c(c2O)C(=O)c2ccccc2C3=O)[C@@]1(C#N)C(=O)OC(C)(C)C` has a TGI of 13.4 µM.
`COc1cc(C(=O)Nc2cccc3ccccc23)c(Br)c(OC)c1OC` gave a TGI of over 100 µM.
Work on `Cn1c(C2CCCc3c2c2ccccc2n3C)cc2ccccc21` (stereo not drawn) yielded a TGI of over 318 µM.

The compounds below were run on UACC-62 melanoma (assay: growth of human tumour cells (NCI), 48 h).
In the case of `COc1cc(/C=C2\CCC(C)(CN(C)C)C2=O)cc(OC)c1OC` (stereo not drawn), the TGI is reported as over 100 µM.
`CC(C)(C)OC(=O)C1=C(O)C(C(=O)OC(C)(C)C)C23CCCCC12C(C(=O)OC(C)(C)C)C(O)=C3C(=O)OC(C)(C)C` (stereo not drawn) showed a TGI of over 100 µM.
`CC[C@H]1CC(=O)c2c(cc3c(c2O)C(=O)c2ccccc2C3=O)[C@@]1(C#N)C(=O)OC(C)(C)C` showed a TGI of 50.6 µM.
`COc1cc(C(=O)Nc2cccc3ccccc23)c(Br)c(OC)c1OC` gave a TGI of over 100 µM.
`Cn1c(C2CCCc3c2c2ccccc2n3C)cc2ccccc21` (stereo not drawn) showed a TGI of over 318 µM.

What follows are compounds tested on DLD-1 colon (assay: growth of human tumour cells (NCI), 48 h).
For `COc1cc(/C=C2\CCC(C)(CN(C)C)C2=O)cc(OC)c1OC` (stereo not drawn), the TGI was over 100 µM.
Compound `CC(C)(C)OC(=O)C1=C(O)C(C(=O)OC(C)(C)C)C23CCCCC12C(C(=O)OC(C)(C)C)C(O)=C3C(=O)OC(C)(C)C` (stereo not drawn) has a TGI of over 100 µM.
`CC[C@H]1CC(=O)c2c(cc3c(c2O)C(=O)c2ccccc2C3=O)[C@@]1(C#N)C(=O)OC(C)(C)C` gave a TGI of 7.08 µM.
Work on `COc1cc(C(=O)Nc2cccc3ccccc23)c(Br)c(OC)c1OC` yielded a TGI of over 100 µM.
`Cn1c(C2CCCc3c2c2ccccc2n3C)cc2ccccc21` (stereo not drawn) was tested, and the TGI was over 318 µM.

What follows are compounds tested on SNB-78 CNS (assay: growth of human tumour cells (NCI), 48 h).
With `COc1cc(/C=C2\CCC(C)(CN(C)C)C2=O)cc(OC)c1OC` (stereo not drawn) the TGI was 99.4 µM.
For `CC(C)(C)OC(=O)C1=C(O)C(C(=O)OC(C)(C)C)C23CCCCC12C(C(=O)OC(C)(C)C)C(O)=C3C(=O)OC(C)(C)C` (stereo not drawn), the TGI was over 100 µM.
In the case of `CC[C@H]1CC(=O)c2c(cc3c(c2O)C(=O)c2ccccc2C3=O)[C@@]1(C#N)C(=O)OC(C)(C)C`, the TGI is reported as over 100 µM.

The compounds below were run on HCT-15 colon (assay: growth of human tumour cells (NCI), 48 h).
Work on `COc1cc(/C=C2\CCC(C)(CN(C)C)C2=O)cc(OC)c1OC` (stereo not drawn) yielded a TGI of over 100 µM.
In the case of `CC(C)(C)OC(=O)C1=C(O)C(C(=O)OC(C)(C)C)C23CCCCC12C(C(=O)OC(C)(C)C)C(O)=C3C(=O)OC(C)(C)C` (stereo not drawn), the TGI is reported as over 100 µM.
Work on `CC[C@H]1CC(=O)c2c(cc3c(c2O)C(=O)c2ccccc2C3=O)[C@@]1(C#N)C(=O)OC(C)(C)C` yielded a TGI of 5.07 µM.
`COc1cc(C(=O)Nc2cccc3ccccc23)c(Br)c(OC)c1OC` gave a TGI of over 100 µM.
For `Cn1c(C2CCCc3c2c2ccccc2n3C)cc2ccccc21` (stereo not drawn), the TGI was over 318 µM.

Each compound was assayed on HCC-2998 colon (assay: growth of human tumour cells (NCI), 48 h).
Compound `COc1cc(/C=C2\CCC(C)(CN(C)C)C2=O)cc(OC)c1OC` (stereo not drawn) has a TGI of over 100 µM.
`CC(C)(C)OC(=O)C1=C(O)C(C(=O)OC(C)(C)C)C23CCCCC12C(C(=O)OC(C)(C)C)C(O)=C3C(=O)OC(C)(C)C` (stereo not drawn) showed a TGI of over 100 µM.
In the case of `CC[C@H]1CC(=O)c2c(cc3c(c2O)C(=O)c2ccccc2C3=O)[C@@]1(C#N)C(=O)OC(C)(C)C`, the TGI is reported as 17.9 µM.
Work on `COc1cc(C(=O)Nc2cccc3ccccc23)c(Br)c(OC)c1OC` yielded a TGI of over 100 µM.
Compound `Cn1c(C2CCCc3c2c2ccccc2n3C)cc2ccccc21` (stereo not drawn) has a TGI of over 318 µM.

What follows are compounds tested on OVCAR-8 ovarian (assay: growth of human tumour cells (NCI), 48 h).
Compound `COc1cc(/C=C2\CCC(C)(CN(C)C)C2=O)cc(OC)c1OC` (stereo not drawn) has a TGI of over 100 µM.
In the case of `CC(C)(C)OC(=O)C1=C(O)C(C(=O)OC(C)(C)C)C23CCCCC12C(C(=O)OC(C)(C)C)C(O)=C3C(=O)OC(C)(C)C` (stereo not drawn), the TGI is reported as over 100 µM.
For `CC[C@H]1CC(=O)c2c(cc3c(c2O)C(=O)c2ccccc2C3=O)[C@@]1(C#N)C(=O)OC(C)(C)C`, the TGI was 15 µM.
`COc1cc(C(=O)Nc2cccc3ccccc23)c(Br)c(OC)c1OC` was tested, and the TGI was 13.6 µM.
`Cn1c(C2CCCc3c2c2ccccc2n3C)cc2ccccc21` (stereo not drawn) was tested, and the TGI was over 318 µM.

The compounds below were run on KM20L2 colon (assay: growth of human tumour cells (NCI), 48 h).
Compound `COc1cc(/C=C2\CCC(C)(CN(C)C)C2=O)cc(OC)c1OC` (stereo not drawn) has a TGI of over 100 µM.
`CC(C)(C)OC(=O)C1=C(O)C(C(=O)OC(C)(C)C)C23CCCCC12C(C(=O)OC(C)(C)C)C(O)=C3C(=O)OC(C)(C)C` (stereo not drawn) showed a TGI of over 100 µM.
`CC[C@H]1CC(=O)c2c(cc3c(c2O)C(=O)c2ccccc2C3=O)[C@@]1(C#N)C(=O)OC(C)(C)C` gave a TGI of 47.4 µM.
`COc1cc(C(=O)Nc2cccc3ccccc23)c(Br)c(OC)c1OC` showed a TGI of over 100 µM.
In the case of `Cn1c(C2CCCc3c2c2ccccc2n3C)cc2ccccc21` (stereo not drawn), the TGI is reported as over 318 µM.

Each compound was assayed on KM12 colon (assay: growth of human tumour cells (NCI), 48 h).
`COc1cc(/C=C2\CCC(C)(CN(C)C)C2=O)cc(OC)c1OC` (stereo not drawn) showed a TGI of over 100 µM.
`CC(C)(C)OC(=O)C1=C(O)C(C(=O)OC(C)(C)C)C23CCCCC12C(C(=O)OC(C)(C)C)C(O)=C3C(=O)OC(C)(C)C` (stereo not drawn) was tested, and the TGI was over 100 µM.
`CC[C@H]1CC(=O)c2c(cc3c(c2O)C(=O)c2ccccc2C3=O)[C@@]1(C#N)C(=O)OC(C)(C)C` showed a TGI of 7.77 µM.
Work on `COc1cc(C(=O)Nc2cccc3ccccc23)c(Br)c(OC)c1OC` yielded a TGI of over 100 µM.
`Cn1c(C2CCCc3c2c2ccccc2n3C)cc2ccccc21` (stereo not drawn) gave a TGI of over 318 µM.

What follows are compounds tested on HL-60(TB) leukemia (assay: growth of human tumour cells (NCI), 48 h).
Work on `COc1cc(/C=C2\CCC(C)(CN(C)C)C2=O)cc(OC)c1OC` (stereo not drawn) yielded a TGI of over 67.2 µM.
In the case of `CC(C)(C)OC(=O)C1=C(O)C(C(=O)OC(C)(C)C)C23CCCCC12C(C(=O)OC(C)(C)C)C(O)=C3C(=O)OC(C)(C)C` (stereo not drawn), the TGI is reported as over 100 µM.
Compound `COc1cc(C(=O)Nc2cccc3ccccc23)c(Br)c(OC)c1OC` has a TGI of 76.2 µM.
In the case of `Cn1c(C2CCCc3c2c2ccccc2n3C)cc2ccccc21` (stereo not drawn), the TGI is reported as over 318 µM.

Each compound was assayed on MALME-3M melanoma (assay: growth of human tumour cells (NCI), 48 h).
`COc1cc(/C=C2\CCC(C)(CN(C)C)C2=O)cc(OC)c1OC` (stereo not drawn) showed a TGI of over 100 µM.
`CC(C)(C)OC(=O)C1=C(O)C(C(=O)OC(C)(C)C)C23CCCCC12C(C(=O)OC(C)(C)C)C(O)=C3C(=O)OC(C)(C)C` (stereo not drawn) gave a TGI of over 100 µM.
